Laboratory results published in ChEMBL document CHEMBL4020777, “Cytotoxic and apoptosis-inducing activities against human lung cancer cell lines of cassaine diterpenoids from the bark of Erythrophleum fordii” (Bioorg Med Chem Lett, 2017).

Key:
A549 [1] = test: Cytotoxicity against human A549 cells by MTT assay; format: functional, cell-based
NCI-H1975 [2] = test: Cytotoxicity against human NCI-H1975 cells by MTT assay; format: functional, cell-based
NCI-H1299 [3] = test: Cytotoxicity against human NCI-H1299 cells by MTT assay; format: functional, cell-based
A549 [4] = test: Induction of apoptosis in human A549 cells assessed as early apoptotic cells at 0.3 uM after 48 hrs by Annexin-V-FITC/propidium iodide staining based flow cytometric method (reference value: 1.04 to 2.73%); format: functional
A549 [5] = test: Induction of apoptosis in human A549 cells assessed as late apoptotic cells at 0.3 uM after 48 hrs by Annexin-V-FITC/propidium iodide staining based flow cytometric method (reference value: 3.4 to 4.76%); format: functional
NCI-H1975 [6] = test: Induction of apoptosis in human NCI-H1975 cells assessed as early apoptotic cells at 0.3 uM after 48 hrs by Annexin-V-FITC/propidium iodide staining based flow cytometric method (reference value: 2.5 to 3.56%); format: functional
NCI-H1975 [7] = test: Induction of apoptosis in human NCI-H1975 cells assessed as late apoptotic cells at 0.3 uM after 48 hrs by Annexin-V-FITC/propidium iodide staining based flow cytometric method (reference value: 2.92 to 4.29%); format: functional
NCI-H1299 [8] = test: Induction of apoptosis in human NCI-H1299 cells assessed as early apoptotic cells at 0.3 uM after 48 hrs by Annexin-V-FITC/propidium iodide staining based flow cytometric method (reference value: 1.91%); format: functional
NCI-H1299 [9] = test: Induction of apoptosis in human NCI-H1299 cells assessed as late apoptotic cells at 0.3 uM after 48 hrs by Annexin-V-FITC/propidium iodide staining based flow cytometric method (reference value: 2.69%); format: functional
A549 [10] = test: Induction of apoptosis in human A549 cells assessed as early apoptotic cells at 0.1 uM after 48 hrs by Annexin-V-FITC/propidium iodide staining based flow cytometric method (reference value: 1.04 to 2.73%); format: functional
A549 [11] = test: Induction of apoptosis in human A549 cells assessed as late apoptotic cells at 0.1 uM after 48 hrs by Annexin-V-FITC/propidium iodide staining based flow cytometric method (reference value: 3.4 to 4.76%); format: functional
NCI-H1975 [12] = test: Induction of apoptosis in human NCI-H1975 cells assessed as early apoptotic cells at 0.1 uM after 48 hrs by Annexin-V-FITC/propidium iodide staining based flow cytometric method (reference value: 2.5 to 3.56%); format: functional
NCI-H1975 [13] = test: Induction of apoptosis in human NCI-H1975 cells assessed as late apoptotic cells at 0.1 uM after 48 hrs by Annexin-V-FITC/propidium iodide staining based flow cytometric method (reference value: 2.92 to 4.29%); format: functional
NCI-H1299 [14] = test: Induction of apoptosis in human NCI-H1299 cells assessed as early apoptotic cells at 0.1 uM after 48 hrs by Annexin-V-FITC/propidium iodide staining based flow cytometric method (reference value: 1.91%); format: functional
NCI-H1299 [15] = test: Induction of apoptosis in human NCI-H1299 cells assessed as late apoptotic cells at 0.1 uM after 48 hrs by Annexin-V-FITC/propidium iodide staining based flow cytometric method (reference value: 2.69%); format: functional
A549 [16] = test: Induction of apoptosis in human A549 cells after 48 hrs by Annexin-V-FITC/propidium iodide staining based flow cytometric method; format: functional, cell-based
NCI-H1975 [17] = test: Induction of apoptosis in human NCI-H1975 cells after 48 hrs by Annexin-V-FITC/propidium iodide staining based flow cytometric method; format: functional, cell-based
NCI-H1299 [18] = test: Induction of apoptosis in human NCI-H1299 cells after 48 hrs by Annexin-V-FITC/propidium iodide staining based flow cytometric method; format: functional, cell-based
A549 [19] = test: Induction of apoptosis in human A549 cells assessed as early apoptotic cells at 3 uM after 48 hrs by Annexin-V-FITC/propidium iodide staining based flow cytometric method (reference value: 1.04 to 2.73%); format: functional
A549 [20] = test: Induction of apoptosis in human A549 cells assessed as late apoptotic cells at 3 uM after 48 hrs by Annexin-V-FITC/propidium iodide staining based flow cytometric method (reference value: 3.4 to 4.76%); format: functional
NCI-H1975 [21] = test: Induction of apoptosis in human NCI-H1975 cells assessed as early apoptotic cells at 3 uM after 48 hrs by Annexin-V-FITC/propidium iodide staining based flow cytometric method (reference value: 2.5 to 3.56%); format: functional
NCI-H1975 [22] = test: Induction of apoptosis in human NCI-H1975 cells assessed as late apoptotic cells at 3 uM after 48 hrs by Annexin-V-FITC/propidium iodide staining based flow cytometric method (reference value: 2.92 to 4.29%); format: functional
NCI-H1299 [23] = test: Induction of apoptosis in human NCI-H1299 cells assessed as early apoptotic cells at 3 uM after 48 hrs by Annexin-V-FITC/propidium iodide staining based flow cytometric method (reference value: 1.91%); format: functional
NCI-H1299 [24] = test: Induction of apoptosis in human NCI-H1299 cells assessed as late apoptotic cells at 3 uM after 48 hrs by Annexin-V-FITC/propidium iodide staining based flow cytometric method (reference value: 2.69%); format: functional

SMILES	IC50 (A549 [1]) [nM]	IC50 (NCI-H1975 [2]) [nM]	IC50 (NCI-H1299 [3]) [nM]	other results
COC(=O)CC1=CC[C@H]2[C@@H](C(=O)[C@H](O)[C@@H]3[C@]2(C)CCC[C@]3(C)C(=O)OC)[C@H]1C	> 10000	> 10000	> 10000	–
COC(=O)[C@@]1(C)CCC[C@@]2(C)[C@H]1CC(=O)[C@H]1[C@@H](C)/C(=C/C(=O)OCCN(C)C)CC[C@@H]12	3400	2100	1900	–
C/C=C(\C)C(=O)O[C@H]1CC[C@@]2(C)[C@@H](C(=O)[C@H](O)[C@H]3[C@@H](C)/C(=C/C(=O)OCCNC)CC[C@@H]32)[C@@]1(C)C(=O)OC	1400	1100	1200	–
COC(=O)/C=C1\CC[C@H]2[C@@H]([C@@H](O)C(=O)[C@@H]3[C@]2(C)CCC[C@]3(C)C(=O)OC)[C@H]1C	> 10000	> 10000	> 10000	–
COC(=O)[C@@]1(C)CCC[C@@]2(C)[C@H]1C(=O)[C@H](O)[C@H]1[C@@H](C)/C(=C/C(=O)OCCN(C)C)CC[C@@H]12	> 10000	> 10000	> 10000	–
CNCCOC(=O)/C=C1\CC[C@H]2[C@@H]([C@@H](O)C(=O)[C@@H]3[C@]2(C)CCC[C@]3(C)C(=O)OC)[C@H]1C	900	1000	1200	–
CC[C@@]1(O)C(=O)OCc2c1cc1n(c2=O)Cc2cc3ccccc3nc2-1 [CAMPTOTHECIN]	700	1200	800	Activity (A549 [4]): 20.33%; Activity (A549 [5]): 14.14%; Activity (NCI-H1975 [6]): 7.9%; Activity (NCI-H1975 [7]): 31.47%; Activity (NCI-H1299 [8]): 13.16%; Activity (NCI-H1299 [9]): 9.44%; Activity (A549 [10]): 14.17%; Activity (A549 [11]): 10.25%; Activity (NCI-H1975 [12]): 5.54%; Activity (NCI-H1975 [13]): 6.73%; Activity (NCI-H1299 [14]): 13.04%; Activity (NCI-H1299 [15]): 5.22%; Activity (A549 [16]): Dose-dependent effect; Activity (NCI-H1975 [17]): Dose-dependent effect; Activity (NCI-H1299 [18]): Dose-dependent effect
COC(=O)/C=C1\CC[C@H]2[C@@H](C(=O)[C@H](O)[C@@H]3[C@]2(C)CCC[C@]3(C)C(=O)OC)[C@H]1C	> 10000	> 10000	> 10000	–
COC(=O)[C@@]1(C)CCC[C@@]2(C)[C@H]1[C@@H](O)C(=O)[C@H]1[C@@H](C)/C(=C/C(=O)OCCN(C)C)CC[C@@H]12	4800	5900	3800	–
C/C=C(\C)C(=O)O[C@H]1CC[C@@]2(C)[C@@H](CC(=O)[C@H]3[C@@H](C)/C(=C/C(=O)OCCNC)CC[C@@H]32)[C@@]1(C)C(=O)OC	500	400	900	Activity (A549 [4]): 1.87%; Activity (A549 [5]): 3.96%; Activity (A549 [19]): 7.27%; Activity (A549 [20]): 12.24%; Activity (NCI-H1975 [6]): 2.14%; Activity (NCI-H1975 [7]): 3.02%; Activity (NCI-H1975 [21]): 5.2%; Activity (NCI-H1975 [22]): 7.56%; Activity (NCI-H1299 [8]): 4.52%; Activity (NCI-H1299 [9]): 3.24%; Activity (NCI-H1299 [23]): 16.48%; Activity (NCI-H1299 [24]): 8.14%; Activity (A549 [16]): Dose-dependent effect; Activity (NCI-H1975 [17]): Dose-dependent effect; Activity (NCI-H1299 [18]): Dose-dependent effect
COC(=O)[C@@]1(C)CCC[C@@]2(C)[C@H]1C[C@H](O)[C@H]1[C@@H](C)/C(=C/C(=O)OCCN(C)C)CC[C@@H]12	3100	2600	2400	–
C/C=C(\C)C(=O)O[C@H]1CC[C@@]2(C)[C@@H]([C@@H](O)C(=O)[C@H]3[C@@H](C)/C(=C/C(=O)OC)CC[C@@H]32)[C@@]1(C)C(=O)OC	> 10000	> 10000	> 10000	–
CNCCOC(=O)/C=C1\CC[C@H]2[C@@H](C(=O)[C@H](O)[C@@H]3[C@]2(C)CCC[C@]3(C)C(=O)OC)[C@H]1C	2100	3300	1500	–
COC(=O)/C=C1\CC[C@H]2[C@@H](C(=O)C[C@@H]3[C@]2(C)CC[C@H](OC(C)=O)[C@]3(C)C(=O)OC)[C@H]1C	> 10000	> 10000	> 10000	–
